Key:
MCF-7 cells = test: MTT cell proliferation assay, MCF-7; format: cell-based, human; settings: for IC50: Homo sapiens, MCF7, 48 h, read-out: IC50 (Mean ± SEM) MCF-7; for antiproliferative activity against MCF-7: MTT assay
MDA-MB-231 cells = test: MTT cell proliferation assay, MDA-MB-231; format: cell-based, human; settings: for IC50: Homo sapiens, MDA-MB-231, 48 h, read-out: IC50 (Mean ± SEM) MDA-MB-231; for antiproliferative activity against MDA-MB-231: MTT assay
HeLa cells = test: MTT cell proliferation assay, HeLa; format: cell-based, human; settings: for IC50: Homo sapiens, HeLa, 48 h, read-out: IC50 (Mean ± SEM) HeLa; for antiproliferative activity against HeLa: MTT assay
PC-3 cells = test: MTT cell proliferation assay, PC-3; format: cell-based; settings: Homo sapiens, PC-3, 48 h, read-out: IC50 (Mean ± SEM) PC-3
Ishikawa cell line = test: MTT cell proliferation assay, Ishikawa; format: cell-based, human; settings: for IC50: Homo sapiens, Ishikawa, 48 h, read-out: IC50 (Mean ± SEM) Ishikawa
HEK-293 cells = test: MTT toxicity in normal cell line HEK-293; format: cell-based; settings: Homo sapiens, HEK293, 48 h, read-out: IC50 (Mean ± SEM) HEK-293
[1] = system: various cancer cell lines; test: MTT assay, panel of cancer cell lines; format: cell-based; settings: Homo sapiens, read-out: IC50 against various cancer cell lines

SMILES	IC50 (MCF-7 cells) [µM]	antiproliferative activity against MCF-7 (MCF-7 cells)	IC50 (MDA-MB-231 cells) [µM]	antiproliferative activity against MDA-MB-231 (MDA-MB-231 cells)	IC50 (HeLa cells) [µM]	antiproliferative activity against HeLa (HeLa cells)	IC50 (PC-3 cells) [µM]	IC50 (Ishikawa cell line) [µM]	IC50 (HEK-293 cells) [µM]	antiproliferative activity against Ishikawa (Ishikawa cell line; MTT assay)	IC50 [1] [µM]
Cc1nn(-c2ccccc2)c(O)c1C(c1ccccc1)c1c(C)nn(-c2ccccc2)c1O [3a]	35.1 ± 1.38	weak inhibition	30.8 ± 1.49	weak inhibition	30.7 ± 1.38	weak inhibition	> 40	30.2 ± 2.12	> 40	–	–
Cc1nn(-c2ccccc2)c(O)c1C(c1ccc(Cl)cc1)c1c(C)nn(-c2ccccc2)c1O [3c]	16.3 ± 0.62	good inhibition	22.4 ± 1.34	mild inhibition	32.4 ± 1.62	weak antiproliferative activity	> 40	36.9 ± 1.38	> 40	weak antiproliferative activity	5.45 to 18.3
